Experimental data from PubChem BioAssay AID1259407 (Chemical Carcinogenesis Research Information System (CCRIS), 2018).
Active and inactive are the calls of the source. How the calls were made is not given here.

Test system: CCRIS mutagenicity, Ames/micronucleus/aberration tests
Assay: CCRIS mutagenicity studies
[1] = Test System: AMES SALMONELLA TYPHIMURIUM, Strain/Indicator: TA98, Metabolic Activation: NONE, Method: PREINCUBATION
[2] = Test System: AMES SALMONELLA TYPHIMURIUM, Strain/Indicator: TA98, Metabolic Activation: NONE, Method: STANDARD PLATE
[3] = Test System: AMES SALMONELLA TYPHIMURIUM, Strain/Indicator: TA100, Metabolic Activation: NONE, Method: PREINCUBATION
[4] = Test System: AMES SALMONELLA TYPHIMURIUM, Strain/Indicator: TA100, Metabolic Activation: NONE, Method: STANDARD PLATE
[5] = Test System: AMES SALMONELLA TYPHIMURIUM, Strain/Indicator: TA97, Metabolic Activation: HAMSTER, LIVER, S-9, AROCLOR 1254 (10 OR 30%), Method: PREINCUBATION
[6] = Test System: AMES SALMONELLA TYPHIMURIUM, Strain/Indicator: TA97, Metabolic Activation: NONE, Method: PREINCUBATION
[7] = Test System: AMES SALMONELLA TYPHIMURIUM, Strain/Indicator: TA97, Metabolic Activation: RAT, LIVER, S-9, AROCLOR 1254 (10 OR 30%), Method: PREINCUBATION
[8] = Test System: AMES SALMONELLA TYPHIMURIUM, Strain/Indicator: TA98, Metabolic Activation: HAMSTER, LIVER, S-9, AROCLOR 1254 (10 OR 30%), Method: PREINCUBATION

Structure (SMILES): O=[N+]([O-])c1ccc2c(c1)Oc1ccccc1O2
- mutagenic call (Test System: AMES SALMONELLA TYPHIMURIUM, Strain/Indicator: TA98(1,8-DNP6), Metabolic Activation: NONE, Method: PREINCUBATION): active; positive
- mutagenic call (Test System: AMES SALMONELLA TYPHIMURIUM, Strain/Indicator: TA98(1,8-DNP6), Metabolic Activation: NONE, Method: SUSPENSION): active; positive
- mutagenic call (Test System: AMES SALMONELLA TYPHIMURIUM, Strain/Indicator: TA98(1,8-DNP6), Metabolic Activation: RAT, LIVER, S-9, PCB (5%), Method: PREINCUBATION): active; positive
- mutagenic call (Test System: AMES SALMONELLA TYPHIMURIUM, Strain/Indicator: TA98(NR), Metabolic Activation: NONE, Method: SUSPENSION): inactive; negative
- mutagenic call (Test System: AMES SALMONELLA TYPHIMURIUM, Strain/Indicator: TA98(NR), Metabolic Activation: RAT, LIVER, S-9 (15%), Method: PREINCUBATION): active; positive
- mutagenic call (Test System: AMES SALMONELLA TYPHIMURIUM, Strain/Indicator: TA98(NR), Metabolic Activation: RAT, LIVER, S-9, 3-METHYLCHOLANTHRENE (15%), Method: PREINCUBATION): active; positive
- mutagenic call (Test System: AMES SALMONELLA TYPHIMURIUM, Strain/Indicator: TA98(NR), Metabolic Activation: RAT, LIVER, S-9, BETA-NAPHTHOFLAVONE (15%), Method: PREINCUBATION): active; positive
- mutagenic call (Test System: AMES SALMONELLA TYPHIMURIUM, Strain/Indicator: TA98(NR), Metabolic Activation: RAT, LIVER, S-9, PCB (5 OR 15%), Method: PREINCUBATION): active; positive
- mutagenic call (Test System: AMES SALMONELLA TYPHIMURIUM, Strain/Indicator: TA98(NR), Metabolic Activation: RAT, LIVER, S-9, PHENOBARBITAL (15%), Method: PREINCUBATION): active; positive
- mutagenic call [1]: active; positive
- mutagenic call [2]: active; positive
- mutagenic call (Test System: AMES SALMONELLA TYPHIMURIUM, Strain/Indicator: TA98, Metabolic Activation: NONE, Method: SUSPENSION): active; positive
- mutagenic call (Test System: AMES SALMONELLA TYPHIMURIUM, Strain/Indicator: TA98, Metabolic Activation: RAT, LIVER, S-9, AROCLOR, Method: STANDARD PLATE): active; positive
- mutagenic call (Test System: AMES SALMONELLA TYPHIMURIUM, Strain/Indicator: TA98, Metabolic Activation: RAT, LIVER, S-9, PCB (5%), Method: PREINCUBATION): active; positive
- mutagenic call (Test System: AMES SALMONELLA TYPHIMURIUM, Strain/Indicator: TA98, Metabolic Activation: RAT, LIVER, S-9, PCB, Method: SUSPENSION): active; positive
- mutagenic call [3]: inactive; negative
- mutagenic call [4]: active; positive
- mutagenic call (Test System: AMES SALMONELLA TYPHIMURIUM, Strain/Indicator: TA100, Metabolic Activation: NONE, Method: SUSPENSION): inactive; negative
- mutagenic call (Test System: AMES SALMONELLA TYPHIMURIUM, Strain/Indicator: TA100, Metabolic Activation: RAT, LIVER, S-9, AROCLOR, Method: STANDARD PLATE): active; positive
- mutagenic call (Test System: AMES SALMONELLA TYPHIMURIUM, Strain/Indicator: TA100, Metabolic Activation: RAT, LIVER, S-9, PCB (5%), Method: PREINCUBATION): inactive; negative
- mutagenic call (Test System: AMES SALMONELLA TYPHIMURIUM, Strain/Indicator: TA100, Metabolic Activation: RAT, LIVER, S-9, PCB, Method: SUSPENSION): inactive; negative

Structure (SMILES): Nc1nc2n[nH]nc2c(=O)[nH]1
- mutagenic call [2]: inactive; negative
- mutagenic call (Test System: AMES SALMONELLA TYPHIMURIUM, Strain/Indicator: TA98, Metabolic Activation: S-9, Method: STANDARD PLATE): inactive; negative
- mutagenic call [4]: inactive; negative
- mutagenic call (Test System: AMES SALMONELLA TYPHIMURIUM, Strain/Indicator: TA100, Metabolic Activation: S-9, Method: STANDARD PLATE): inactive; negative
- mutagenic call (Test System: AMES SALMONELLA TYPHIMURIUM, Strain/Indicator: TA102, Metabolic Activation: NONE, Method: STANDARD PLATE): inactive; negative
- mutagenic call (Test System: AMES SALMONELLA TYPHIMURIUM, Strain/Indicator: TA1537, Metabolic Activation: NONE, Method: STANDARD PLATE): inactive; negative
- mutagenic call (Test System: AMES SALMONELLA TYPHIMURIUM, Strain/Indicator: TA1537, Metabolic Activation: S-9, Method: STANDARD PLATE): inactive; negative
- mutagenic call (Test System: E. COLI, Strain/Indicator: WP2 (HCR), Metabolic Activation: NONE, Method: STANDARD PLATE): inactive; negative
- mutagenic call (Test System: E. COLI, Strain/Indicator: WP2 (HCR), Metabolic Activation: S-9, Method: STANDARD PLATE): inactive; negative

Structure (SMILES): OCCCCO
- mutagenic call [5]: inactive; negative
- mutagenic call [6]: inactive; negative
- mutagenic call [7]: inactive; negative
- mutagenic call [8]: inactive; negative
- mutagenic call [1]: inactive; negative
- mutagenic call (Test System: AMES SALMONELLA TYPHIMURIUM, Strain/Indicator: TA98, Metabolic Activation: RAT, LIVER, S-9, AROCLOR 1254 (10 OR 30%), Method: PREINCUBATION): inactive; negative
- mutagenic call (Test System: AMES SALMONELLA TYPHIMURIUM, Strain/Indicator: TA100, Metabolic Activation: HAMSTER, LIVER, S-9, AROCLOR 1254 (10%), Method: PREINCUBATION): inactive; negative
- mutagenic call (Test System: AMES SALMONELLA TYPHIMURIUM, Strain/Indicator: TA100, Metabolic Activation: HAMSTER, LIVER, S-9, AROCLOR 1254 (30%), Method: PREINCUBATION): inactive; negative
- mutagenic call [3]: inactive; negative
- mutagenic call (Test System: AMES SALMONELLA TYPHIMURIUM, Strain/Indicator: TA100, Metabolic Activation: RAT, LIVER, S-9, AROCLOR 1254 (10 OR 30%), Method: PREINCUBATION): inactive; negative
- mutagenic call (Test System: AMES SALMONELLA TYPHIMURIUM, Strain/Indicator: TA1535, Metabolic Activation: HAMSTER, LIVER, S-9, AROCLOR 1254 (10 OR 30%), Method: PREINCUBATION): inactive; negative
- mutagenic call (Test System: AMES SALMONELLA TYPHIMURIUM, Strain/Indicator: TA1535, Metabolic Activation: NONE, Method: PREINCUBATION): inactive; negative
- mutagenic call (Test System: AMES SALMONELLA TYPHIMURIUM, Strain/Indicator: TA1535, Metabolic Activation: RAT, LIVER, S-9, AROCLOR 1254 (10 OR 30%), Method: PREINCUBATION): inactive; negative

Structure (SMILES): Oc1ccc2cc(SSc3ccc4cc(O)ccc4c3)ccc2c1
- mutagenic call [5]: inactive; negative
- mutagenic call [6]: inactive; negative
- mutagenic call [7]: inactive; negative
- mutagenic call [8]: inactive; negative
- mutagenic call [1]: inactive; negative
- mutagenic call (Test System: AMES SALMONELLA TYPHIMURIUM, Strain/Indicator: TA98, Metabolic Activation: RAT, LIVER, S-9, AROCLOR 1254 (5 OR 30%), Method: PREINCUBATION): inactive; negative
- mutagenic call (Test System: AMES SALMONELLA TYPHIMURIUM, Strain/Indicator: TA98, Metabolic Activation: RAT, LIVER, S-9, AROCLOR 1254 (10%), Method: PREINCUBATION): inactive; negative
- mutagenic call (Test System: AMES SALMONELLA TYPHIMURIUM, Strain/Indicator: TA100, Metabolic Activation: HAMSTER, LIVER, S-9, AROCLOR 1254 (10 OR 30%), Method: PREINCUBATION): inactive; negative
- mutagenic call [3]: inactive; negative
- mutagenic call (Test System: AMES SALMONELLA TYPHIMURIUM, Strain/Indicator: TA100, Metabolic Activation: RAT, LIVER, S-9, AROCLOR 1254 (5 OR 30%), Method: PREINCUBATION): inactive; negative
- mutagenic call (Test System: AMES SALMONELLA TYPHIMURIUM, Strain/Indicator: TA100, Metabolic Activation: RAT, LIVER, S-9, AROCLOR 1254 (10%), Method: PREINCUBATION): inactive; negative
- mutagenic call (Test System: AMES SALMONELLA TYPHIMURIUM, Strain/Indicator: TA102, Metabolic Activation: HAMSTER, LIVER, S-9, AROCLOR 1254 (10 OR 30%), Method: PREINCUBATION): inactive; negative
- mutagenic call (Test System: AMES SALMONELLA TYPHIMURIUM, Strain/Indicator: TA102, Metabolic Activation: NONE, Method: PREINCUBATION): inactive; negative
- mutagenic call (Test System: AMES SALMONELLA TYPHIMURIUM, Strain/Indicator: TA102, Metabolic Activation: RAT, LIVER, S-9, AROCLOR 1254 (10 OR 30%), Method: PREINCUBATION): inactive; negative
- mutagenic call (Test System: AMES SALMONELLA TYPHIMURIUM, Strain/Indicator: TA1535, Metabolic Activation: RAT, LIVER, S-9, AROCLOR 1254 (5, 10 OR 30%), Method: PREINCUBATION): inactive; negative
- mutagenic call (Test System: AMES SALMONELLA TYPHIMURIUM, Strain/Indicator: TA1538, Metabolic Activation: RAT, LIVER, S-9, AROCLOR 1254 (5, 10 OR 30%), Method: PREINCUBATION): inactive; negative
